Experimental data: publication PMC11392244, “Characterization of a unique catechol-O-methyltransferase as a molecular drug target in parasitic filarial nematodes” (PLOS Neglected Tropical Diseases, 2024)
Where “and” joins values, the source holds several entries; their conditions need not be identical. Identical values can stand only once. Like-named read-outs stand apart in the source and are kept apart here.

Experiments:
D. immitis microfilariae = test: In vitro efficacy against live D. immitis microfilariae (motility, completely immotile %); format: cell-based, Dirofilaria immitis
mammalian cells = details: cited from earlier work
DiMT protein = format: biochemical, Dirofilaria immitis

## CO[C@@]12[C@H](COC(N)=O)C3=C(C(=O)C(C)=C(N)C3=O)N1C[C@H]1[C@@H]2N1C (some centres unmarked) [NSC56410]
D. immitis microfilariae; 25 µM, 0 h
  Mean completely Immotile (%): 0%
D. immitis microfilariae; 25 µM, 24 h
  Mean completely Immotile (%): 2.33%
D. immitis microfilariae; 25 µM, 48 h
  Mean completely Immotile (%): 7.67%
D. immitis microfilariae; 25 µM, 72 h
  Mean completely Immotile (%): 12.5%
D. immitis microfilariae; 25 µM, 96 h
  Mean completely Immotile (%): 30.5%
D. immitis microfilariae; 25 µM, 120 h
  Mean completely Immotile (%): 45%
D. immitis microfilariae; 50 µM, 0 h
  Mean completely Immotile (%): 0%
D. immitis microfilariae; 50 µM, 24 h
  Mean completely Immotile (%): 13%
D. immitis microfilariae; 50 µM, 48 h
  Mean completely Immotile (%): 21.33%
D. immitis microfilariae; 50 µM, 72 h
  Mean completely Immotile (%): 54.33%
D. immitis microfilariae; 50 µM, 96 h
  Mean completely Immotile (%): 79.33%
D. immitis microfilariae; 50 µM, 120 h
  Mean completely Immotile (%): 97.67%
D. immitis microfilariae; 75 µM, 0 h
  Mean completely Immotile (%): 0%
D. immitis microfilariae; 75 µM, 24 h
  Mean completely Immotile (%): 38.67%
D. immitis microfilariae; 75 µM, 48 h
  Mean completely Immotile (%): 59.33%
D. immitis microfilariae; 75 µM, 72 h
  Mean completely Immotile (%): 86%
D. immitis microfilariae; 75 µM, 96 h
  Mean completely Immotile (%): 98.33%
D. immitis microfilariae; 75 µM, 120 h
  Mean completely Immotile (%): 100%
D. immitis microfilariae; 100 µM, 0 h
  Mean completely Immotile (%): 0%
D. immitis microfilariae; 100 µM, 24 h
  Mean completely Immotile (%): 61%
D. immitis microfilariae; 100 µM, 48 h
  Mean completely Immotile (%): 77.67%
D. immitis microfilariae; 100 µM, 72 h
  Mean completely Immotile (%): 98%
D. immitis microfilariae; 100 µM, 96 h
  Mean completely Immotile (%): 100%
D. immitis microfilariae; 100 µM, 120 h
  Mean completely Immotile (%): 100%
D. immitis microfilariae; Dirofilaria immitis, 96 h, read-out: Anti-parasitic EC50 (μM), 96 h post-treatment
  EC50: 32.1 µM
D. immitis microfilariae; read-out: Anti-parasitic EC50, 96 h post-treatment
  EC50: 32.2 µM
D. immitis microfilariae; single experiments, 25 µM, 0 h
  Completely Immotile Microfilariae (%): 0%
D. immitis microfilariae; single experiments, 25 µM, 24 h
  Completely Immotile Microfilariae (%): 2% and 4% and 1%
D. immitis microfilariae; single experiments, 25 µM, 48 h
  Completely Immotile Microfilariae (%): 8% and 10% and 5%
D. immitis microfilariae; single experiments, 25 µM, 72 h
  Completely Immotile Microfilariae (%): 15% and 12.5% and 10%
D. immitis microfilariae; single experiments, 25 µM, 96 h
  Completely Immotile Microfilariae (%): 35% and 29.5% and 27%
D. immitis microfilariae; single experiments, 25 µM, 120 h
  Completely Immotile Microfilariae (%): 50% and 44% and 41%
D. immitis microfilariae; single experiments, 50 µM, 0 h
  Completely Immotile Microfilariae (%): 0%
D. immitis microfilariae; single experiments, 50 µM, 24 h
  Completely Immotile Microfilariae (%): 15% and 11.5% and 12.5%
D. immitis microfilariae; single experiments, 50 µM, 48 h
  Completely Immotile Microfilariae (%): 23% and 21% and 20%
D. immitis microfilariae; single experiments, 50 µM, 72 h
  Completely Immotile Microfilariae (%): 56% and 50% and 57%
D. immitis microfilariae; single experiments, 50 µM, 96 h
  Completely Immotile Microfilariae (%): 80% and 76% and 82%
D. immitis microfilariae; single experiments, 50 µM, 120 h
  Completely Immotile Microfilariae (%): 100% and 95% and 98%
D. immitis microfilariae; single experiments, 75 µM, 0 h
  Completely Immotile Microfilariae (%): 0%
D. immitis microfilariae; single experiments, 75 µM, 24 h
  Completely Immotile Microfilariae (%): 36% and 40%
D. immitis microfilariae; single experiments, 75 µM, 48 h
  Completely Immotile Microfilariae (%): 55% and 60% and 63%
D. immitis microfilariae; single experiments, 75 µM, 72 h
  Completely Immotile Microfilariae (%): 83% and 88% and 87%
D. immitis microfilariae; single experiments, 75 µM, 96 h
  Completely Immotile Microfilariae (%): 100% and 95%
D. immitis microfilariae; single experiments, 75 µM, 120 h
  Completely Immotile Microfilariae (%): 100%
D. immitis microfilariae; single experiments, 100 µM, 0 h
  Completely Immotile Microfilariae (%): 0%
D. immitis microfilariae; single experiments, 100 µM, 24 h
  Completely Immotile Microfilariae (%): 60% and 58% and 65%
D. immitis microfilariae; single experiments, 100 µM, 48 h
  Completely Immotile Microfilariae (%): 75% and 78% and 80%
D. immitis microfilariae; single experiments, 100 µM, 72 h
  Completely Immotile Microfilariae (%): 95% and 100% and 99%
D. immitis microfilariae; single experiments, 100 µM, 96 h
  Completely Immotile Microfilariae (%): 100%
D. immitis microfilariae; single experiments, 100 µM, 120 h
  Completely Immotile Microfilariae (%): 100%
D. immitis microfilariae; up to 120 h of culture
  effect on microfilariae: killing effect
Mammalian cells; read-out: Cytotoxicity IC50, ref Zhang et al., [30]
  IC50: 188 µM
DiMT protein; 50 µM
  Mean Percent Inhibition: 18.0% and 26.7% and 20.5%
  Mean Percent Inhibition, Average: 21.7%
DiMT protein; 100 µM
  Mean Percent Inhibition: 26.6% and 33.3% and 21.3%
  Mean Percent Inhibition, Average: 27.1%
DiMT protein; 150 µM
  Mean Percent Inhibition: 31.0% and 35.0% and 25.0%
  Mean Percent Inhibition, Average: 30.3%
DiMT protein; 200 µM
  Mean Percent Inhibition: 34.6% and 41.9% and 31.9%
  Mean Percent Inhibition, Average: 36.1%
DiMT protein; 250 µM
  Mean Percent Inhibition: 41.2% and 38.8% and 51.8%
  Mean Percent Inhibition, Average: 43.9%
DiMT protein; 300 µM
  Mean Percent Inhibition: 48.3% and 48.6% and 46.0%
  Mean Percent Inhibition, Average: 47.6%
DiMT protein; 350 µM
  Mean Percent Inhibition: 53.8% and 59.3% and 53.7%
  Mean Percent Inhibition, Average: 55.6%
DiMT protein; 400 µM
  Mean Percent Inhibition: 62.5% and 63.8%
  Mean Percent Inhibition, Average: 62.9%
DiMT protein; read-out: IC 50 (μM ± SEM)
  IC50: 300 ± 2.5 µM

## Ivermectin [reference compound]
D. immitis microfilariae; 2.5 µM, 0 h
  Completely Immotile Microfilariae (%): 0%
  Mean completely Immotile (%): 0%
D. immitis microfilariae; 2.5 µM, 24 h
  Completely Immotile Microfilariae (%): 1% and 2%
  Mean completely Immotile (%): 1.7%
D. immitis microfilariae; 2.5 µM, 48 h
  Completely Immotile Microfilariae (%): 1.5% and 2.5% and 2%
  Mean completely Immotile (%): 2.0%
D. immitis microfilariae; 2.5 µM, 72 h
  Completely Immotile Microfilariae (%): 2% and 2.5% and 3%
  Mean completely Immotile (%): 2.5%
D. immitis microfilariae; 2.5 µM, 90 h
  Completely Immotile Microfilariae (%): 3% and 4% and 4.5%
D. immitis microfilariae; 2.5 µM, 96 h
  Mean completely Immotile (%): 3.8%
D. immitis microfilariae; 2.5 µM, 120 h
  Completely Immotile Microfilariae (%): 5% and 5.5% and 7%
  Mean completely Immotile (%): 5.83%
D. immitis microfilariae; 5 µM, 0 h
  Mean completely Immotile (%): 0%
D. immitis microfilariae; 5.0 µM, 0 h
  Completely Immotile Microfilariae (%): 0%
D. immitis microfilariae; 5 µM, 24 h
  Mean completely Immotile (%): 2.3%
D. immitis microfilariae; 5.0 µM, 24 h
  Completely Immotile Microfilariae (%): 2% and 3%
D. immitis microfilariae; 5 µM, 48 h
  Mean completely Immotile (%): 3.7%
D. immitis microfilariae; 5.0 µM, 48 h
  Completely Immotile Microfilariae (%): 3% and 4%
D. immitis microfilariae; 5 µM, 72 h
  Mean completely Immotile (%): 5.0%
D. immitis microfilariae; 5.0 µM, 72 h
  Completely Immotile Microfilariae (%): 5% and 4.5% and 5.5%
D. immitis microfilariae; 5.0 µM, 90 h
  Completely Immotile Microfilariae (%): 7.5% and 7% and 8.5%
D. immitis microfilariae; 5 µM, 96 h
  Mean completely Immotile (%): 7.7%
D. immitis microfilariae; 5 µM, 120 h
  Mean completely Immotile (%): 15.0%
D. immitis microfilariae; 5.0 µM, 120 h
  Completely Immotile Microfilariae (%): 15% and 12.5% and 17.5%
D. immitis microfilariae; 10 µM, 0 h
  Completely Immotile Microfilariae (%): 0%
  Mean completely Immotile (%): 0%
D. immitis microfilariae; 10 µM, 24 h
  Completely Immotile Microfilariae (%): 3% and 4%
  Mean completely Immotile (%): 3.3%
D. immitis microfilariae; 10 µM, 48 h
  Completely Immotile Microfilariae (%): 5% and 6%
  Mean completely Immotile (%): 5.7%
D. immitis microfilariae; 10 µM, 72 h
  Completely Immotile Microfilariae (%): 7.5% and 8.5%
  Mean completely Immotile (%): 7.8%
D. immitis microfilariae; 10.0 µM, 90 h
  Completely Immotile Microfilariae (%): 25% and 28.5% and 30%
D. immitis microfilariae; 10 µM, 96 h
  Mean completely Immotile (%): 27.8%
D. immitis microfilariae; 10 µM, 120 h
  Completely Immotile Microfilariae (%): 50% and 53.5% and 53%
  Mean completely Immotile (%): 52.2%
D. immitis microfilariae; 15 µM, 0 h
  Mean completely Immotile (%): 0%
D. immitis microfilariae; 15.0 µM, 0 h
  Completely Immotile Microfilariae (%): 0%
D. immitis microfilariae; 15 µM, 24 h
  Mean completely Immotile (%): 3.8%
D. immitis microfilariae; 15.0 µM, 24 h
  Completely Immotile Microfilariae (%): 3.5% and 4.5%
D. immitis microfilariae; 15 µM, 48 h
  Mean completely Immotile (%): 6.2%
D. immitis microfilariae; 15.0 µM, 48 h
  Completely Immotile Microfilariae (%): 6% and 6.7%
D. immitis microfilariae; 15 µM, 72 h
  Mean completely Immotile (%): 11.0%
D. immitis microfilariae; 15.0 µM, 72 h
  Completely Immotile Microfilariae (%): 10% and 12% and 11%
D. immitis microfilariae; 15.0 µM, 90 h
  Completely Immotile Microfilariae (%): 30% and 37% and 33%
D. immitis microfilariae; 15 µM, 96 h
  Mean completely Immotile (%): 33.3%
D. immitis microfilariae; 15 µM, 120 h
  Mean completely Immotile (%): 72.3%
D. immitis microfilariae; 15.0 µM, 120 h
  Completely Immotile Microfilariae (%): 70% and 75% and 72%
D. immitis microfilariae; 20 µM, 0 h
  Mean completely Immotile (%): 0%
D. immitis microfilariae; 20.0 µM, 0 h
  Completely Immotile Microfilariae (%): 0%
D. immitis microfilariae; 20 µM, 24 h
  Mean completely Immotile (%): 11.2%
D. immitis microfilariae; 20.0 µM, 24 h
  Completely Immotile Microfilariae (%): 10% and 12.5% and 11%
D. immitis microfilariae; 20 µM, 48 h
  Mean completely Immotile (%): 15.7%
D. immitis microfilariae; 20.0 µM, 48 h
  Completely Immotile Microfilariae (%): 15% and 17%
D. immitis microfilariae; 20 µM, 72 h
  Mean completely Immotile (%): 26.0%
D. immitis microfilariae; 20.0 µM, 72 h
  Completely Immotile Microfilariae (%): 25% and 30% and 23%
D. immitis microfilariae; 20.0 µM, 90 h
  Completely Immotile Microfilariae (%): 50% and 65% and 49%
D. immitis microfilariae; 20 µM, 96 h
  Mean completely Immotile (%): 54.7%
D. immitis microfilariae; 20 µM, 120 h
  Mean completely Immotile (%): 90.3%
D. immitis microfilariae; 20.0 µM, 120 h
  Completely Immotile Microfilariae (%): 90% and 94% and 87%
D. immitis microfilariae; 30 µM, 0 h
  Mean completely Immotile (%): 0%
D. immitis microfilariae; 30.0 µM, 0 h
  Completely Immotile Microfilariae (%): 0%
D. immitis microfilariae; 30 µM, 24 h
  Mean completely Immotile (%): 27.7%
D. immitis microfilariae; 30.0 µM, 24 h
  Completely Immotile Microfilariae (%): 25% and 30% and 28%
D. immitis microfilariae; 30 µM, 48 h
  Mean completely Immotile (%): 43.0%
D. immitis microfilariae; 30.0 µM, 48 h
  Completely Immotile Microfilariae (%): 40% and 46% and 43%
D. immitis microfilariae; 30 µM, 72 h
  Mean completely Immotile (%): 56.0%
D. immitis microfilariae; 30.0 µM, 72 h
  Completely Immotile Microfilariae (%): 50% and 60% and 58%
D. immitis microfilariae; 30.0 µM, 90 h
  Completely Immotile Microfilariae (%): 80% and 85% and 88%
D. immitis microfilariae; 30 µM, 96 h
  Mean completely Immotile (%): 84.3%
D. immitis microfilariae; 30 µM, 120 h
  Mean completely Immotile (%): 95.3%
D. immitis microfilariae; 30.0 µM, 120 h
  Completely Immotile Microfilariae (%): 95% and 98% and 93%
D. immitis microfilariae; read-out: Anti-parasitic EC50
  EC50: 17.6 µM
Mammalian cells; read-out: Cytotoxicity IC50, ref Tan et al., [31]
  IC50: 37.4 µM
